The values that follow come from patent US20260297108A1, “NOVEL INHIBITORS OF PIKFYVE AND METHODS USING SAME” (priority 2023, published 2026).

One assay deals with PIKFYVE (Homo sapiens, UniProt Q9Y2I7). The assay can be described thus: KINOMEscan Kinase Assay (PIKFYVE inhibitory activity).
Chain of PIKFYVE (Q9Y2I7 whole entry): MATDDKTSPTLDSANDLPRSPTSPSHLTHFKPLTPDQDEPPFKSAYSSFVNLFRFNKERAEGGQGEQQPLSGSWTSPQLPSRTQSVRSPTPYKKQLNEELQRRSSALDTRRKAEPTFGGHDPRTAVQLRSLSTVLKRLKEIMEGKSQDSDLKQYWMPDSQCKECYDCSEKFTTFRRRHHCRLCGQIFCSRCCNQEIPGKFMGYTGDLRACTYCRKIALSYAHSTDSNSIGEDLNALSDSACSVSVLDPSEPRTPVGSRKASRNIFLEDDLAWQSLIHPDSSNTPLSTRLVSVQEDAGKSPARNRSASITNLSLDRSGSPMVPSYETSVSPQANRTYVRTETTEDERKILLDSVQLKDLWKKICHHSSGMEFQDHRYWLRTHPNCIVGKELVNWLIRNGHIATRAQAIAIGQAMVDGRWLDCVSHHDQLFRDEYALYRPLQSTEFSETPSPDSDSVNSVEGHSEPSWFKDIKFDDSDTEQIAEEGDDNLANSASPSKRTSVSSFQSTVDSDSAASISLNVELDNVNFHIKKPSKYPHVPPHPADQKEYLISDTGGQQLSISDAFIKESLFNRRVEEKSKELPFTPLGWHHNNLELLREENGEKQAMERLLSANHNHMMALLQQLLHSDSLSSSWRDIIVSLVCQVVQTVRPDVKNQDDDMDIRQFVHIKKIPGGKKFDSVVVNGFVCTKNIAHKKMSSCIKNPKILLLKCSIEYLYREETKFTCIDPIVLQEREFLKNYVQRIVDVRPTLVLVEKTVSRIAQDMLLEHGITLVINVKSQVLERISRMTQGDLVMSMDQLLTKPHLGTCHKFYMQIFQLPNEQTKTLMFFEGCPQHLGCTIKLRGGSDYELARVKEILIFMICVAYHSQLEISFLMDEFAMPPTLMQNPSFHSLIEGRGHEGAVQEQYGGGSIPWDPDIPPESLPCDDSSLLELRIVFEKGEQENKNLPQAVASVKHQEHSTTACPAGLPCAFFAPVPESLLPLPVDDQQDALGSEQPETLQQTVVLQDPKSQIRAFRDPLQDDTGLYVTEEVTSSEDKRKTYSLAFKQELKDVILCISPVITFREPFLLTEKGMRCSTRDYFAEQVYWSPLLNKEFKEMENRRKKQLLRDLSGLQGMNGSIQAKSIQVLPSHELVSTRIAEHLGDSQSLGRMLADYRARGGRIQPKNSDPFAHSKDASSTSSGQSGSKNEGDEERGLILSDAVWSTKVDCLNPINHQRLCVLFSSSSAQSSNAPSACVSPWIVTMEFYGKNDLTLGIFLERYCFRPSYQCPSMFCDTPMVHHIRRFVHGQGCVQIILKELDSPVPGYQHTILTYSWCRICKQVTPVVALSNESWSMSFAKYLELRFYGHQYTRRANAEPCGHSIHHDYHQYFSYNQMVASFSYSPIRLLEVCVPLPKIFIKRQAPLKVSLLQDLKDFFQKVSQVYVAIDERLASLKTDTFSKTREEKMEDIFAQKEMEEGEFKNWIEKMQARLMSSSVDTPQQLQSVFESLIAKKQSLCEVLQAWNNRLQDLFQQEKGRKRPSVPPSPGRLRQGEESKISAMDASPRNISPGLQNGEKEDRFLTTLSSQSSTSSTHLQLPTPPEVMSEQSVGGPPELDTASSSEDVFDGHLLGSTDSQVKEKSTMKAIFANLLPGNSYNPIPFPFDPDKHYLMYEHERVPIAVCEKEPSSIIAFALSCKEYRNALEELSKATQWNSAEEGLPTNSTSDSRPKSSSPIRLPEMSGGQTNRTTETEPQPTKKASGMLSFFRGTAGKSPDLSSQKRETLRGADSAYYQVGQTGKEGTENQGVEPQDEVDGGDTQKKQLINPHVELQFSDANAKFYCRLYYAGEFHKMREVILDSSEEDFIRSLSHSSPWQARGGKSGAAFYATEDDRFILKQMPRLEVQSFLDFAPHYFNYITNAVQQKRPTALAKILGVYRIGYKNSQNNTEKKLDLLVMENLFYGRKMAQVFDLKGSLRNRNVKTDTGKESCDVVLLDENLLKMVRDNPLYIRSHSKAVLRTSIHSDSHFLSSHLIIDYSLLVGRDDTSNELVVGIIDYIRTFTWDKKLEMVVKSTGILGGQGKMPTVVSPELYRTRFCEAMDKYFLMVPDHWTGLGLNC
Conditions: not given
The compound `Cc1cccc(-c2ccn(-c3nc(N4CCOCC4)c4nc(CN5CCN(C(C)C)CC5)[nH]c4n3)n2)c1` [Ex. 40, 4-(8-((4-isopropylpiperazin-1-yl)methyl)-2-(3-(m-tolyl)-1H-pyrazol-1-yl)-9H-purin-6-yl)morpholine] came in with a 50% inhibitory concentration (IC50) of 1 to 10 nM.

Staying with this assay, now noted: read-out: PIKfyve Activity (% inhibition).
As for `Cc1cccc(-c2ccn(-c3cc(N4CCOCC4)c4nc(C(=O)N5CCN(S(C)(=O)=O)CC5)[nH]c4n3)n2)c1` [Ex. 87], the inhibition at 0.001 µM came out at 20%.

Consider `Cc1cccc(-c2ccn(-c3cc(N4CCOCC4)c4sc(CO)c(C)c4n3)n2)c1` [Ex. 166, (3-Methyl-7-morpholino-5-(3-(m-tolyl)-1H-pyrazol-1-yl)thieno[3,2-b]pyridin-2-yl)methanol], for which the inhibition at 0.001 µM came to 34% and the inhibition at 0.003 µM turned out to be 14%.

Turning to `Cc1cccc(-c2ccn(-c3cc(N4CCOCC4)c4sc(CN5CCOCC5)c(C)c4n3)n2)c1` [Ex. 167, 4-(3-Methyl-2-(morpholinomethyl)-5-(3-(m-tolyl)-1H-pyrazol-1-yl)thieno[3,2-b]pyridin-7-yl)morpholine], the inhibition at 0.001 µM came out at 7%.

For `Cc1cccc(-c2ccn(-c3cc(N4CCOCC4)c4sc(CN5CCN(S(C)(=O)=O)CC5)c(C)c4n3)n2)c1` [Ex. 169, 4-(3-Methyl-2-((4-(methylsulfonyl)piperazin-1-yl)methyl)-5-(3-(m-tolyl)-1H-pyrazol-1-yl)thieno[3,2-b]pyridin-7-yl)morpholine], the inhibition at 0.003 µM turned out to be 47%.

With `Cc1cccc(-c2ccn(-c3nc(N4CCOCC4)c4nc(CN5CCC(N(C)C)C(F)C5)n(C)c4n3)n2)c1` (centres unmarked) [Ex. 171, 3-fluoro-N,N-dimethyl-1-((9-methyl-6-morpholino-2-(3-(m-tolyl)-1H-pyrazol-1-yl)-9H-purin-8-yl)methyl)piperidin-4-amine], the inhibition at 0.003 µM turned out to be 22%.

In the case of `Brc1ccn(-c2cc(N3CCOCC3)c3sc(CN4CCOCC4)cc3n2)n1` [Ex. 173, 4-(5-(3-Bromo-1H-pyrazol-1-yl)-2-(morpholinomethyl)thieno[3,2-b]pyridin-7-yl)morpholine], the inhibition at 0.001 µM is 18%.

For `CC(=O)c1cccc(-c2ccn(-c3cc(N4CCOCC4)c4sc(CN5CCOCC5)cc4n3)n2)c1` [Ex. 184, 1-(3-(1-(7-Morpholino-2-(morpholinomethyl)thieno[3,2-b]pyridin-5-yl)-1H-pyrazol-3-yl)phenyl) ethan-1-one], the inhibition at 0.005 µM was determined as 10%.

Staying with this assay, now noted: read-out: PIKfyve Activity (PIKfyve % inhibition).
As for `Cc1cccc(-c2ccn(-c3nc(N4CCOCC4)c4nc(C(=O)N5CCN(S(C)(=O)=O)CC5)[nH]c4n3)n2)c1` [Ex. 78], the inhibition at 0.001 µM lay in the range of 52 to 100%.

For the compound `Cc1cccc(-c2ccn(-c3cc(N4CCOCC4)c4nc(CN5CCN(C(C)C)CC5)n(C)c4n3)n2)c1` [Ex. 79, 4-(2-((4-isopropylpiperazin-1-yl)methyl)-3-methyl-5-(3-(m-tolyl)-1H-pyrazol-1-yl)-3H-imidazo[4,5-b]pyridin-7-yl)morpholine], the inhibition at 0.001 µM was in the range of 52 to 100%.

For the compound `Cc1cccc(-c2ccn(-c3cc(N4CCOCC4)c4nc(CN5CCC(N(C)C)C(F)C5)n(C)c4n3)n2)c1` (centres unmarked) [Ex. 82, 3-fluoro-N,N-dimethyl-1-((3-methyl-7-morpholino-5-(3-(m-tolyl)-1H-pyrazol-1-yl)-3H-imidazo[4,5-b]pyridin-2-yl)methyl)piperidin-4-amine], the inhibition at 0.001 µM lay in the range of 52 to 100%.

`Cc1cccc(-c2ccn(-c3cc(N4CCOCC4)c4nc(CN5CCC(N6CCC6)C(F)C5)n(C)c4n3)n2)c1` (centres unmarked) [Ex. 83, 4-(2-((4-(azetidin-1-yl)-3-fluoropiperidin-1-yl)methyl)-3-methyl-5-(3-(m-tolyl)-1H-pyrazol-1-yl)-3H-imidazo[4,5-b]pyridin-7-yl)morpholine]: the inhibition at 0.001 µM is 52 to 100%.

As for `Cc1cccc(-c2ccn(-c3nc(N4CCOCC4)c4nc(C(=O)N5CCC(N6CCC6)C(F)C5)[nH]c4n3)n2)c1` (centres unmarked) [Ex. 85, (4-(Azetidin-1-yl)-3-fluoropiperidin-1-yl) (6-morpholino-2-(3-(m-tolyl)-1H-pyrazol-1-yl)-9H-purin-8-yl)methanone], the inhibition at 0.001 µM was in the range of 52 to 100%.

Consider `Cc1cccc(-c2ccn(-c3nc(N4CCOCC4)c4nc(C(=O)N5CCN(C(C)C)CC5)[nH]c4n3)n2)c1` [Ex. 86], for which the inhibition at 0.001 µM fell in the range of 52 to 100%.

On to `Cc1cccc(-c2ccn(-c3cc(N4CCOCC4)c4nc(C(=O)N5CCC(N6CCC6)C(F)C5)[nH]c4n3)n2)c1` (centres unmarked) [Ex. 89], for which the inhibition at 0.001 µM was in the range of 52 to 100%.

On to `Cc1cccc(-c2ccn(-c3cc(N4CCOCC4)c4sc(CN5CCN(C(C)C)CC5)c(C)c4n3)n2)c1` [Ex. 132, 4-(2-((4-Isopropylpiperazin-1-yl)methyl)-3-methyl-5-(3-(m-tolyl)-1H-pyrazol-1-yl)thieno[3,2-b]pyridin-7-yl)morpholine], for which the inhibition at 0.001 µM was 52 to 100%.

For the compound `Cc1cccc(-c2ccn(-c3cc(N4CCOCC4)c4sc(C(=O)NC5CCOCC5)cc4n3)n2)c1` [Ex. 177, 7-Morpholino-N-(tetrahydro-2H-pyran-4-yl)-5-(3-(m-tolyl)-1H-pyrazol-1-yl)thieno[3,2-b]pyridine-2-carboxamide], the inhibition at 0.001 µM fell in the range of 52 to 100%.

As for `Cc1cccc(-c2ccn(-c3cc(N4CCOCC4)c4sc(C(=O)NC5COC5)cc4n3)n2)c1` [Ex. 179, 7-Morpholino-N-(oxetan-3-yl)-5-(3-(m-tolyl)-1H-pyrazol-1-yl)thieno[3,2-b]pyridine-2-carboxamide], the inhibition at 0.001 µM lay within 52 to 100%.

For the compound `Cc1cccc(-c2ccn(-c3nc(N4CCOCC4)c4sc(/C=C/CN5CCN(C)CC5)cc4n3)n2)c1` [Ex. 180], the inhibition at 0.001 µM lay within 52 to 100%.

For the compound `Cc1cccc(-c2ccn(-c3cc(N4CCOCC4)c4sc(C(=O)NC5CC5)cc4n3)n2)c1` [Ex. 183, N-cyclopropyl-7-morpholino-5-(3-(m-tolyl)-1H-pyrazol-1-yl)thieno[3,2-b]pyridine-2-carboxamide], the inhibition at 0.001 µM lay in the range of 52 to 100%.

For `Cc1cccc(-c2ccn(-c3cc(N4CCOCC4)c4sc(C(=O)NC5CCN(C)CC5)cc4n3)n2)c1` [Ex. 186, N-(1-Methylpiperidin-4-yl)-7-morpholino-5-(3-(m-tolyl)-1H-pyrazol-1-yl)thieno[3,2-b]pyridine-2-carboxamide], the inhibition at 0.001 µM lay in the range of 52 to 100%.

For `Cc1cccc(-c2ccn(-c3cc(N4CCOCC4)c4sc(C(=O)NC5CCCN(C)C5)cc4n3)n2)c1` (centres unmarked) [Ex. 187, N-(1-Methylpiperidin-3-yl)-7-morpholino-5-(3-(m-tolyl)-1H-pyrazol-1-yl)thieno[3,2-b]pyridine-2-carboxamide], the inhibition at 0.001 µM was 52 to 100%.

As to `Cc1cccc(-c2ccn(-c3cc(N4CCOCC4)c4sc(C(=O)NC5CCN(C)C5)cc4n3)n2)c1` (centres unmarked) [Ex. 200, N-(1-Methylpyrrolidin-3-yl)-7-morpholino-5-(3-(m-tolyl)-1H-pyrazol-1-yl)thieno[3,2-b]pyridine-2-carboxamide], the inhibition at 0.001 µM was in the range of 52 to 100%.

For `Cc1cccc(-c2ccn(-c3cc(N4CCOCC4)c4sc(C(=O)NC5CN(C)C5)cc4n3)n2)c1` [Ex. 201, N-(1-Methylazetidin-3-yl)-7-morpholino-5-(3-(m-tolyl)-1H-pyrazol-1-yl)thieno[3,2-b]pyridine-2-carboxamide], the inhibition at 0.001 µM was in the range of 52 to 100%.

For the compound `Cc1cccc(-c2ccn(-c3nc(N4CCOCC4)c4sc(NCCN5CCOCC5)nc4n3)n2)c1` [Ex. 202, 7-Morpholino-N-(2-morpholinoethyl)-5-(3-(m-tolyl)-1H-pyrazol-1-yl)thiazolo-[4,5-d]pyrimidin-2-amine], the inhibition at 0.001 µM was in the range of 52 to 100%.
